The source of these data is PubChem BioAssay (NCI).

Assay in all cases: inhibition of tumour cell growth, NCI panel, 48 h
The test system of experiment [1] is EKVX NSCLC.
Experiment [2] concerns HOP-62 NSCLC.
For experiment [3], the system named is HOP-92 NSCLC.
The test system of experiment [4] is IGROV1 ovarian.
The test system of experiment [5] is M14 melanoma.
Experiment [6] deals with OVCAR-8 ovarian.
The subject of experiment [7] is RPMI-8226 leukemia.
Experiment [8] has as its system SK-OV-3 ovarian.
For experiment [9], the system named is SN12C renal.
Experiment [10] concerns K-562 leukemia.

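Exposure lasted 48 hours, with cells grown in 96-well plates and compounds tested at five concentrations. Here, GI50 denotes the concentration required for 50% inhibition of growth. TGI marks complete inhibition of growth.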

With `Cc1cc(C)c(C(=O)c2no[n+]([O-])c2C(=O)c2c(C)cc(C)c(Br)c2C)c(C)c1Br`, the TGI is 24.4 µM in experiment [1]; 33.4 µM in experiment [2]; 20.3 µM in experiment [3]; 23.3 µM in [4]; 25.1 µM in [5]; 27.1 µM in [6]. The TGI in experiment [7] stood at 38.9 µM; in experiment [8], 52.3 µM; in experiment [9], 33.4 µM.

`COc1ccc2c(c1)/C(=C\c1c(Cl)[nH]c3ccc(OC)cc13)C(=O)N2`: the GI50 is 84.7 µM in experiment [1]; 32.6 µM in [2]; 61.7 µM in experiment [3]; 56.9 µM in [4]; 21.9 µM in experiment [5]; 34.1 µM in experiment [6]. In addition, the GI50 in experiment [7] is 33.3 µM; in experiment [8], 41.9 µM. Besides, the TGI in [1] was greater than 100 µM; in experiment [2] it was 95.2 µM; in [3], greater than 100 µM; in experiment [4], greater than 100 µM; in experiment [5] it was 39.8 µM; in experiment [6], greater than 100 µM. Besides, the TGI in [7] and in [8] was greater than 100 µM throughout.

In the case of `CCOc1cccc(/C=N/NC(=O)C(=O)Nc2cccc(C(F)(F)F)c2)c1O`, the GI50 in experiment [2] is 3.1 µM; in [4] it was 1.3 µM; in experiment [10], 2 µM; in [5], 1.52 µM; in experiment [6], 1.29 µM; in [7] it was 2.08 µM. Also, the GI50 in experiment [8] was 5.28 µM; in [9] it was 2.66 µM. The TGI is 53.6 µM in experiment [2]; 25.8 µM in experiment [4]; greater than 100 µM in experiment [10]; 12.6 µM in experiment [5]; greater than 100 µM in experiment [6]; greater than 100 µM in [7]. In addition, the TGI in experiment [8] and in experiment [9] was greater than 100 µM in each case.

Turning to `CCCOc1ccc2nc(NC(=O)OC)[nH]c2c1`, the GI50 in experiment [1] is 0.535 µM; in [2], 0.417 µM; in experiment [3], 0.18 µM; in experiment [4], 0.481 µM; in experiment [5], 0.14 µM; in experiment [6] it was 0.485 µM. For the same compound, the GI50 in [7] was 0.502 µM; in experiment [8] it was 0.262 µM; in [9] it was 0.597 µM. Further, the TGI in experiment [1] was greater than 100 µM; in experiment [2], greater than 78.8 µM; in experiment [3] it was greater than 100 µM; in [4] it was greater than 100 µM; in [5], greater than 100 µM; in experiment [6] it was greater than 100 µM. Also, the TGI in [7] and in [9] was greater than 100 µM in each case.

For the compound `COc1ccc(/C=C2\CCCC(C(NO)c3ccc(OC)cc3)C2=NO)cc1` (stereo unspecified), the TGI in experiment [1], in experiment [2], in experiment [4], in experiment [10], in experiment [5] and in experiment [6] was greater than 100 µM each time. The TGI in experiment [7], in [8] and in experiment [9] was greater than 100 µM in each case.

For `COC1OC(CO)C(O)C1N` (stereo unspecified), the TGI in [1], in experiment [2], in experiment [3], in [4], in experiment [10] and in experiment [5] was greater than 100 µM in each case. In addition, the TGI in experiment [6], in [8] and in experiment [9] was greater than 100 µM throughout.

Take `Cc1c(C(=O)NCCN2CCOCC2)cn2ncnc(Oc3ccc(NC(=O)Nc4ccc(Cl)c(C(F)(F)F)c4)cc3)c12`: the GI50 in [2] is 1.99 µM; in experiment [3] it was 1.02 µM; in experiment [5], 1.08 µM; in [6], 3.1 µM; in experiment [7], 0.545 µM. Besides, the TGI is 3.92 µM in experiment [2]; 2.8 µM in experiment [3]; 2.55 µM in [5]; greater than 100 µM in experiment [6]; 3.01 µM in experiment [7].

As for `O=C1NC(=S)S/C1=C(/C=C(\CC(=O)c1ccccc1)c1ccc(Cl)cc1)c1ccccc1`, the GI50 was 33.6 µM in experiment [1]; 38.5 µM in experiment [2]; 41.6 µM in [4]; 15.3 µM in experiment [10]; 24.7 µM in experiment [5]; 26.5 µM in [6]. In addition, the GI50 was greater than 100 µM in experiment [8] and 25.3 µM in [9]. The TGI in [1] is greater than 100 µM; in experiment [2] it was greater than 100 µM; in [4], greater than 100 µM; in experiment [10] it was greater than 100 µM; in [5] it was 63.4 µM; in experiment [6] it was greater than 100 µM. The TGI is greater than 100 µM in experiment [8] and 56.3 µM in experiment [9].

In the case of `Nc1ccccc1C#C/C=C\C#Cc1ccccc1`, the GI50 is 15.3 µM in experiment [1]; 15 µM in experiment [2]; 12.8 µM in [10]; 15.8 µM in experiment [5]; 48 µM in experiment [6]; 1.26 µM in experiment [7]. In addition, the values for the GI50 in experiment [8] and in experiment [9] were 32 µM and 13.4 µM, respectively. For the same compound, the TGI was 41.1 µM in experiment [1]; 33.6 µM in experiment [2]; greater than 100 µM in experiment [10]; 32.4 µM in [5]; greater than 100 µM in [6]; 10.7 µM in experiment [7]. For the same compound, the TGI in experiment [8] came to 81.3 µM; in experiment [9] it was 29.7 µM.

As to `NCCCCNc1ccc2c(=O)[nH][nH]c(=O)c2c1`, the TGI in [1], in experiment [2], in experiment [3], in experiment [4], in [10] and in [5] was greater than 100 µM throughout. Also, the TGI in [6], in experiment [8] and in [9] was greater than 100 µM in each case.

Consider `COC1C2C=CC(C2)[C@H]1[N+](=O)[O-]` (stereo partly specified), for which the TGI in [1], in experiment [2], in [3], in experiment [4], in experiment [10] and in experiment [5] was greater than 100 µM throughout. Also, the TGI in experiment [6], in experiment [8] and in experiment [9] was greater than 100 µM each time.
